This passage reports IC50 results from patent US12187721B2, “Protein tyrosine phosphatase inhibitors” (Array BioPharma Inc., priority 2018, dated 2025).

SMILES strings stand for the structures.

The target of the first assay is T1, full-length SHP2 (His6-tagged SHP2(2-527)) (Homo sapiens, UniProt Q06124).
T1 construct: His6-tagged SHP2(2-527); His6; made in house; host or cells: E. coli
T1 sequence (Q06124 2-527): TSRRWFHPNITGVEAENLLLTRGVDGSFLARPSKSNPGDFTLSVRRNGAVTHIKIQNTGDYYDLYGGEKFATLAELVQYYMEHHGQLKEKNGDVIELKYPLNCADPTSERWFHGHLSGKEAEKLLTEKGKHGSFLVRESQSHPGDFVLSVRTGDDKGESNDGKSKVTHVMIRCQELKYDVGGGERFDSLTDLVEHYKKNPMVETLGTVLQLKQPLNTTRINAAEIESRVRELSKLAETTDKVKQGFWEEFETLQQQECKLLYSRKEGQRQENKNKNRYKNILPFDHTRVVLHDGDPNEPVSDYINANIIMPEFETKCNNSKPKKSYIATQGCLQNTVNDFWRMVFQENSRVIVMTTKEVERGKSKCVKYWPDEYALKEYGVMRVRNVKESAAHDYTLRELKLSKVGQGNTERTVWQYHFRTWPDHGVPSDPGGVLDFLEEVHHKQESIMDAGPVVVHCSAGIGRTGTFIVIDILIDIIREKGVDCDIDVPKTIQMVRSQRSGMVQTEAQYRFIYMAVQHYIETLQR
Kind of assay: SHP2 Enzymatic Assay (fluorescence intensity kinetic assay, DiFMUP hydrolysis). Format: biochemical.
Conditions: not given
The method, then:
A fluorescence intensity kinetic assay was configured for full-length SHP2 that monitors the amount of 6,8-difluoro-7-hydroxy-4-methylcoumarin (“DiFMU”) formed upon hydrolysis of 6,8-difluoro-4-methylumbelliferyl phosphate (“DiFMUP”) by SHP2. Assay mixtures consisted of 25 mM K^+HEPES, pH 7.4, 0.01% Triton X-100, 1 mM DTT, 50 mM KCl, 100 μg/mL bovine γ-globulin, 50 μM DiFMUP, 1 μM SHP2 activating peptide (LN(pY)IDLDLV(dPEG8)LST(pY)ASINFQK-amide), 1 nM full-length SHP2 (His6-tagged SHP2(2-527), recombinantly expressed in E. coli and purified in-house) and 2% dimethylsulfoxide (“DMSO”) (from compound). […] The assay was run in 384-well, polystyrene, low-volume, non-treated, black microtiter plates (Costar 4511) in a final volume of 20 μL. Low control wells lacked enzyme. The assays were initiated by the addition of a mixture of SHP2 and the activating peptide, and following a 15 second mix on an orbital shaker, were read in kinetic mode for 15 minutes (30 seconds/cycle) at ambient temperature on a PerkinElmer EnVision microplate reader (λEx=355 nm, λEm=460 nm). Initial velocities (slopes of the tangents at t=0) were estimated from exponential fits to the slightly nonlinear progress curves and then were converted to percent of control (“POC”) using the following equation:
[formula] • Where: Xmax Average Uninhibited Controls • Xmin Average Background A 4-parameter logistic model was the fit to the POC data for each compound. From that fit, the IC50 was estimated and is defined as the concentration of compound at which the curve crosses 50 POC.
The reported IC50 in Table 1 may be from a single assay or the mean of multiple assays.
In general, IC50 refers to the concentration at which inhibition is half-maximal. `C[C@@]1(N)CCCN(c2cnc3nc(Sc4ccnc(N)c4Cl)ccc3n2)CC1` (single isomer, unassigned) [Example 74] registered an IC50 of 42 nM.

For `C[C@]1(N)CCCN(c2cnc3nc(Sc4ccnc(N)c4Cl)ccc3n2)CC1` (single isomer, unassigned) [Example 75], the IC50 was determined as 30 nM.

In turn, `N#Cc1ccc2c(c1)[C@@H](N)C1(CCN(c3cnc4nc(Sc5ccnc(N)c5Cl)ccc4n3)CC1)C2` (single isomer, unassigned) [Example 112] gave an IC50 of 33 nM.

Turning to `COc1ccc2c(n1)CC1(CCN(c3cnc4nc(Sc5ccnc(N)c5Cl)ccc4n3)CC1)[C@H]2N` (single isomer, unassigned) [Example 116], inhibition was half-maximal at 36 nM (IC50).

In turn, `Nc1nccc(Sc2ccc3nc(N4CCC5(CC4)Cc4ncc(F)cc4[C@@H]5N)cnc3n2)c1Cl` (single isomer, unassigned) [Example 118] displayed an IC50 of 45 nM.

Turning to `CNc1nccc(Sc2ccc3nc(N4CCC[C@@](C)(N)CC4)cnc3n2)c1Cl` (single isomer, unassigned) [Example 148], half-maximal inhibition (IC50) required 93 nM.

In the case of `CNc1nccc(Sc2ccc3nc(N4CCC[C@](C)(N)CC4)cnc3n2)c1Cl` (single isomer, unassigned) [Example 149], the IC50 is 98 nM.

`Cc1nccc(Sc2ccc3nc(N4CCC[C@@](C)(N)CC4)cnc3n2)c1Cl` (single isomer, unassigned) [Example 150] displayed an IC50 of 50 nM.

Take `Cc1nccc(Sc2ccc3nc(N4CCC[C@](C)(N)CC4)cnc3n2)c1Cl` (single isomer, unassigned) [Example 151]: 76 nM corresponded to half-maximal inhibition (IC50).

In turn, `CC1(N)CCN(c2cnc3nc(-c4cccc(Cl)c4)ccc3n2)CC1` [Example 3, 1-(6-(3-chlorophenyl)pyrido[2,3-b]pyrazin-2-yl)-4-methylpiperidin-4-amine] gave an IC50 of 1800 nM.

For the molecule `C[C@@H]1OCC2(CCN(c3ccc4nc(Sc5cccc(Cl)c5Cl)cnc4n3)CC2)[C@@H]1N` [Example 5, (3S,4S)-8-(2-((2,3-dichlorophenyl)thio)pyrido[2,3-b]pyrazin-6-yl)-3-methyl-2-oxa-8-azaspiro[4,5]decan-4-amine], the IC50 was determined as 4000 nM.

Molecule `CC1(N)CCN(c2cnc3nc(Sc4cccc(Cl)c4Cl)ccc3n2)CC1` [Example 6, 1-(6-((2,3-dichlorophenyl)thio)pyrido[2,3-b]pyrazin-2-yl)-4-methylpiperidin-4-amine] had an IC50 of 58 nM.

`CC1(N)CCN(c2ccc3nc(Sc4cccc(Cl)c4Cl)cnc3n2)CC1` [Example 7, 1-(2-((2,3-dichlorophenyl)thio)pyrido[2,3-b]pyrazin-6-yl)-4-methylpiperidin-4-amine]: inhibition was half-maximal at 9500 nM (IC50).

As to `N[C@@H]1CCCC12CCN(c1cnc3nc(Sc4cccc(Cl)c4Cl)ccc3n1)CC2` [Example 8, (R)-8-(6-((2,3-dichlorophenyl)thio)pyrido[2,3-b]pyrazin-2-yl)-8-azaspiro[4.5]decan-1-amine], the IC50 was determined as 59 nM.

Molecule `NC1(CO)CCN(c2cnc3nc(Sc4cccc(Cl)c4Cl)ccc3n2)CC1` [Example 9, (4-amino-1-(6-((2,3-dichlorophenyl)thio)pyrido[2,3-b]pyrazin-2-yl)piperidin-4-yl)methanol] showed an IC50 of 62 nM.

As for `CC1(N)CCN(c2cnc3nc(Cc4cccc(Cl)c4Cl)ccc3n2)CC1` [Example 10, 1-(6-(2,3-dichlorobenzyl)pyrido[2,3-b]pyrazin-2-yl)-4-methylpiperidin-4-amine], the IC50 amounted to 2000 nM.

`CC1(N)CCN(c2cnc3nc(-c4cccc(Cl)c4C(F)(F)F)ccc3n2)CC1` [Example 11, 1-(6-(3-chloro-2-(trifluoromethyl)phenyl)pyrido[2,3-b]pyrazin-2-yl)-4-methylpiperidin-4-amine] came in with an IC50 of 2300 nM.

In the case of `COc1cccc(Sc2ccc3nc(N4CCC(C)(N)CC4)cnc3n2)c1Cl` [Example 14, 1-(6-((2-chloro-3-methoxyphenyl)thio)pyrido[2,3-b]pyrazin-2-yl)-4-methylpiperidin-4-amine], inhibition was half-maximal at 100 nM (IC50).

In turn, `CC1(N)CCN(c2cnc3nc(-c4cccc(Cl)c4F)ccc3n2)CC1` [Example 16, 1-(6-(3-chloro-2-fluorophenyl)pyrido[2,3-b]pyrazin-2-yl)-4-methylpiperidin-4-amine] registered an IC50 of 290 nM.

On to `CC1(N)CCN(c2cnc3nc(Nc4cccc(Cl)c4Cl)ccc3n2)CC1` [Example 17, 2-(4-amino-4-methylpiperidin-1-yl)-N-(2,3-dichlorophenyl)pyrido[2,3-b]pyrazin-6-amine], for which inhibition was half-maximal at 870 nM (IC50).

With `CN(C)C1(C)CCN(c2cnc3nc(-c4cccc(Cl)c4Cl)ccc3n2)CC1` [Example 18, 1-(6-(2,3-dichlorophenyl)pyrido[2,3-b]pyrazin-2-yl)-N,N,4-trimethylpiperidin-4-amine], the IC50 came out at 570 nM.

As to `CC1(N)CCN(c2cnc3nc(-c4ccnc(N5CCCC5)c4Cl)ccc3n2)CC1` [Example 19, 1-(6-(3-chloro-2-(pyrrolidin-1-yl)pyridin-4-yl)pyrido[2,3-b]pyrazin-2-yl)-4-methylpiperidin-4-amine], the IC50 was 1700 nM.

`COc1nccc(Sc2ccc3nc(N4CCC(C)(N)CC4)cnc3n2)c1Cl` [Example 20, 1-(6-((3-chloro-2-methoxypyridin-4-yl)thio)pyrido[2,3-b]pyrazin-2-yl)-4-methylpiperidin-4-amine] had an IC50 of 360 nM.

Molecule `COc1nccc(-c2ccc3nc(N4CCC5(CC4)CO[C@@H](C)[C@H]5N)cnc3n2)c1Cl` [Example 21, (3S,4S)-8-(6-(3-chloro-2-methoxypyridin-4-yl)pyrido[2,3-b]pyrazin-2-yl)-3-methyl-2-oxa-8-azaspiro[4.5]decan-4-amine] gave an IC50 of 5700 nM.

With `CC1(CN)CCN(c2cnc3cc(-c4cccc(Cl)c4Cl)ccc3n2)CC1` [Example 23, (1-(6-(2,3-dichlorophenyl)quinoxalin-2-yl)-4-methylpiperidin-4-yl)methanamine], the IC50 came to 2500 nM.

`C[C@@]1(N)CCN(c2cnc3nc(Sc4ccnc(N)c4Cl)ccc3n2)C1` [Example 24, (R)-4-((2-(3-amino-3-methylpyrrolidin-1-yl)pyrido[2,3-b]pyrazin-6-yl)thio)-3-chloropyridin-2-amine] displayed an IC50 of 200 nM.

The assay is the same for the next values; noted with them: full-length SHP2 with 1 μM activating peptide, 50 μM DiFMUP; single assay or mean of multiple assays; read-out: Biological Example 1 IC50.
On to `CC1(N)CCN(c2cnc3nc(-c4cccc(Cl)c4Cl)ccc3n2)CC1` [Example 2, 1-(6-(2,3-dichlorophenyl)pyrido[2,3-b]pyrazin-2-yl)-4-methylpiperidin-4-amine], for which the IC50 amounted to 93 nM.

Consider `CC1(CN)CCN(c2cnc3nc(Sc4ccnc(N)c4Cl)ccc3n2)CC1` [Example 12, 4-((2-(4-(aminomethyl)-4-methylpiperidin-1-yl)pyrido[2,3-b]pyrazin-6-yl)thio)-3-chloropyridin-2-amine], for which the IC50 was 61 nM.

For `CC1(N)CCN(c2cnc3nc(Oc4cccc(Cl)c4Cl)ccc3n2)CC1` [Example 15, 1-(6-(2,3-dichlorophenoxy)pyrido[2,3-b]pyrazin-2-yl)-4-methylpiperidin-4-amine], the IC50 was determined as 340 nM.

Consider `CC1(N)CCN(c2cnc3cc(-c4cccc(Cl)c4Cl)ccc3n2)CC1` [Example 22, 1-(6-(2,3-dichlorophenyl)quinoxalin-2-yl)-4-methylpiperidin-4-amine], for which the IC50 turned out to be 700 nM.
